These results are taken from patent US20040072824A1, “Methods and compositions for the treatment of cancer” (priority 2001, published 2004).

Molecules are shown by their SMILES. Structures can show the parent of a compound that is named as a salt.

The subject of data set [1] is blastic cells from AML patients. Description: Inhibition of viability of fresh leukemic cells (trypan blue exclusion). The data set is classed as cell-based, human. To be noted: Homo sapiens, 72 h, patient ID 14, FAB AML5; 10^-5 M; day 3; read-out: In Vitro Percent Inhibition of Viability. The procedure: Samples for AML 1 through 5, AML 1 being the least and AML 5 being the most differentiated, were obtained. […] Cells were incubated with or without […] anti-histamine derivatives. Polaramine was included as a negative control. Cell counts were assessed by trypan blue exclusion test at day 3 after the incubation. Morphological analysis was performed using Wright-Giemsa staining on cytocentrifuge preparations. The results were expressed as % inhibition of growth as compared to negative control.

The test system of data set [2] is K562, U937, Jurkat, T47-D, MCF7, BT20 and 184B5 cell lines. Description: Cytotoxicity in malignant and immortalized cell lines (manual counting, Alamar assay). The data set is classed as cell-based. The conditions noted are these: all of the cell lines tested. The procedure:
These four compounds were added at different concentrations to cultures of various malignant cell lines and normal cells. The cell lines used for these tests were the following:
All leukemic cell lines were grown and used in logarithmic phase. After one day of treatment, the cells were isolated, counted and diluted in a regular growth medium to provide the cell density of about 75×10^3 cells/ml for reading on plates at 48 hours after the treatment, and […] for reading at 144 hours after the treatment.
Several dilutions of each compound tested were added to the wells (12 wells per plate, TPP), and 1 ml of cells from the parent solution was added per well after a line had been completed. The dilutions were made using the culture medium, and following dilutions were tested: control, which contained no compound of this invention; 1:100; 1:1,000; 1:2,000; 1:5,000; and 1:10,000. The starting concentrations for these dilutions were: 50 mg/ml for compound A; 10 mg/ml for compound B; 25 mg/ml for compound C; and 5 mg/ml for compound D. The results were analyzed by manual counting and Alamar reduced assay.
The cells were grown on their respective propagation medium and seeded 24 hours before the compounds are added. The cells were trypsinized, and 50,000 cells/well and 10,000 cells/well were seeded in order to read the plates at 48 hours and 144 hours after being treated by the compounds, respectively.
On the day of the treatment, the medium was replaced by 10 ml each of series dilution of the compounds, consisting of: control, which contained no compound of this invention; 1:100 dilution; 1:1,000 dilution; 1:2,000 dilution; and 1:5,000 dilution. The starting concentrations for these dilutions were: 50 mg/ml for compound A; 10 mg/ml for compound B; 25 mg/ml for compound C; and 5 mg/ml for compound D. The dilution was made using the growth medium.
A tested compound is regarded as being active in cytotoxicity where the percentage of surviving cells after the treatment with the compound is less than 30%.

Turning to `CN(C)CC[C@@H](c1ccc(Cl)cc1)c1ccccn1` [D, dexchlorpheniramine maleate], the cytotoxicity at 10 µM in data set [1] was 9%. The cytotoxic activity entry in data set [2] was “little or no cytotoxic activity”.
